Data on 28 compounds can be found in PubChem BioAssay (NCI).

Holding throughout (experiment): NCI tumour cell line growth inhibition, 48 h
For test [1], the system named is A549 NSCLC.
The test system of test [2] is IGROV1 ovarian.
Test [3] deals with M14 melanoma.
Test [4] deals with NCI-H522 lung.
The test system of test [5] is SNB-19 CNS.
Test [6] relates to SW-620 colon.
The test system of test [7] is U251 CNS.
In test [8] the test system is UACC-257 melanoma.
Test [9] has as its system DU-145 prostate.
The subject of test [10] is MDA-MB-435.

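Assay format: 96-well plates, 48-hour exposure. Abbreviation: GI50, concentration required for 50% inhibition of growth. TGI: total growth inhibition.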 Where only a bound is given, the exact number is not on record here.

Regarding `COC(=O)c1ccc(C(=O)OC)c2nc3cc(Cl)ccc3nc12`, the TGI in [1], in test [2], in test [3], in test [4], in test [5] and in [6] was greater than 100 µM throughout. The TGI in test [7] and in [8] was greater than 100 µM each time.
Turning to `CCOC(=O)/C(C#N)=C\Sc1ccccc1`, the TGI in test [1] is greater than 100 µM; in [2], 23.2 µM; in [3], 35.6 µM; in test [4] it was 11.3 µM; in test [5] it was greater than 100 µM; in [6], 72.6 µM. The TGI in [7] is 29 µM; in test [8] it was greater than 100 µM.
Turning to `O=C1C(Cl)=C(Cl)C(=O)N1c1cccc(C(F)(F)F)c1`, the TGI in test [1] is greater than 100 µM; in test [2], greater than 100 µM; in [3], greater than 100 µM; in test [4] it was 26.4 µM; in [5], greater than 100 µM; in [6], greater than 100 µM. Also, the TGI in [7] and in test [8] was greater than 100 µM in each case.
On to `CCCS(=O)c1nc(COC(=O)NC)c(COC(=O)NC)n1C` (stereo not given), for which the TGI in test [1], in [2], in [3], in test [4], in test [5] and in [6] was greater than 100 µM each time. The TGI in test [7] and in [8] was greater than 100 µM in each case.
Consider `O=C(O)/C(Cl)=C(Cl)/C=N/NC(=O)c1cc2ccccc2cc1O`, for which the TGI in [1] was greater than 100 µM; in test [2] it was greater than 100 µM; in test [3], 56 µM; in test [4], 77 µM; in test [5] it was greater than 100 µM; in [6], greater than 100 µM. Besides, the values for the TGI in test [7] and in test [8] were greater than 100 µM and 65.6 µM, respectively.
Consider `C[C@]12CC(C=O)C(=O)C(O)=C1CC[C@@H]1C2CC[C@@]2(C)C1CC[C@]2(C)O` (stereo not given in full), for which the TGI is greater than 100 µM in test [1]; 47.5 µM in test [2]; 35 µM in test [3]; 63.5 µM in test [5]; greater than 100 µM in test [6]; 44.9 µM in [7]. This compound displayed a TGI in test [8] of 75.5 µM.
Regarding `NC(=O)C(=O)C1C(=O)N(c2ccccc2)N=C1N` (stereo not given), the TGI in test [1], in test [2], in test [3], in test [4], in test [5] and in test [6] was greater than 100 µM each time. In addition, the TGI in test [8] was greater than 100 µM.
Regarding `CC(=O)[CH-]C(=O)c1ccccc1.CC(=O)[CH-]C(=O)c1ccccc1.CC[C@H](/C=C/C(C)[C@H]1CCC2[C@@H]3CC=C4C[C@@H]([O-])CC[C@]4(C)C3CC[C@@]21C)C(C)C.CC[C@H](/C=C/C(C)[C@H]1CCC2[C@@H]3CC=C4C[C@@H]([O-])CC[C@]4(C)C3CC[C@@]21C)C(C)C.Cl.[Ti+4]` (stereo not given in full), the GI50 in test [1], in [2], in test [3], in test [4], in test [5] and in test [6] was greater than 25 µM throughout. Besides, the GI50 in test [7] and in test [8] was greater than 25 µM in each case. Also, the TGI in [1], in [2], in test [3], in [4], in test [5] and in [6] was greater than 25 µM throughout. Besides, the TGI in test [7] and in test [8] was greater than 25 µM throughout.
On to `N#CC(C(=N/O)/C(=N\O)C(C#N)c1ccccc1)c1ccccc1` (stereo not given), for which the TGI in test [1], in test [2], in test [3], in [4], in test [5] and in test [6] was greater than 100 µM throughout. For the same compound, the TGI in test [7] and in test [8] was greater than 100 µM throughout.
As to `CCCCCN(CCCCC)C(=O)[C@H](CCC(=O)O)NC(=O)c1cc2ccccc2[nH]1`, the TGI in test [1] was greater than 100 µM; in test [2] it was greater than 100 µM; in test [3], greater than 100 µM; in [4] it was 67.7 µM; in test [5], greater than 100 µM; in [6], greater than 100 µM. The TGI in test [7] and in test [8] was greater than 100 µM each time.
Turning to `COc1cccc2c(SCC(=O)Nc3ccccc3-c3ccccc3NC(=O)CSc3c4ccccc4nc4c(OC)cccc34)c3ccccc3nc12`, the TGI in test [1], in [2], in [3], in [5] and in [7] was greater than 100 µM throughout.
Consider `COc1cc2c3cc1Oc1c(OC)c(OC)cc4c1[C@@H](Cc1ccc(O)c(c1)Oc1ccc(cc1)C[C@@H]3N(C)CC2)N(C)CC4`, for which the TGI in test [1] amounted to 62 µM; in test [2], 36.9 µM; in [3], 16.7 µM; in test [4], 20.3 µM; in [5], 45.3 µM; in [6], 33.8 µM. Besides, the TGI in test [7] amounted to 21.7 µM; in test [8], 10.9 µM.
As to `C[C@]12Cc3conc3C(O)=C1CC[C@@H]1C2CC[C@@]2(C)C1CC[C@]2(C)O` (stereo not given in full), the TGI in test [1] is greater than 100 µM; in test [2] it was 62.2 µM; in [3], 36.2 µM; in test [5], greater than 100 µM; in [6], greater than 100 µM; in test [7] it was 48.9 µM. Besides, the TGI in test [8] is 80.4 µM.
`O=[N+]([O-])c1cccc(S(=O)(=O)N/N=C/c2cc(I)cc([N+](=O)[O-])c2O)c1`: the TGI in test [1] is greater than 100 µM; in [2], greater than 100 µM; in test [3], 77 µM; in [4] it was 35.9 µM; in [5] it was 65.5 µM; in test [6] it was 58.5 µM. Moreover, the TGI is 57.8 µM in test [7] and 57 µM in [8].
`COc1ccc(NC(=O)c2oc3cc(O)ccc3c(=O)c2C)c([N+](=O)[O-])c1`: the TGI in test [1], in test [2], in test [3], in test [4], in test [5] and in [6] was greater than 100 µM throughout. The TGI in [7] and in [8] was greater than 100 µM throughout.
As for `Nn1c(-c2cccc(Cl)c2)nc2ccccc2c1=O`, the TGI in test [1], in test [2], in [3], in [4], in [5] and in test [6] was greater than 100 µM throughout. In addition, the TGI in test [7] and in test [8] was greater than 100 µM in each case.
Consider `CCCCCCCCC(C)CCCCCCCCC(=O)OCC(COP(=O)([O-])OCC[N+](C)(C)C)OC(=O)CCCCCCCCC(C)CCCCCCCC` (stereo not given), for which the TGI in test [1], in test [2], in test [3], in [4], in test [5] and in test [6] was greater than 100 µM in each case. The TGI in test [7] and in [8] was greater than 100 µM throughout.
In the case of `COc1cc2c3c(n([C@@H]4CCOC4)c(=O)c2cc1OC)-c1cc2c(cc1C3=O)OCO2`, the GI50 in [1] is 0.0107 µM; in test [9], less than 0.01 µM; in test [2] it was 0.0537 µM; in test [3] it was less than 0.01 µM; in test [4] it was less than 0.01 µM; in test [5], less than 0.01 µM. The GI50 in [6] is less than 0.01 µM. Also, the TGI in test [1], in test [9], in test [2], in [3], in test [4] and in [5] was greater than 100 µM throughout. Also, the TGI in test [6] was greater than 100 µM.
Consider `CC(C)N1C(C)[C@@H](c2ccccc2)O[P@@]1(=O)CC1=CCCCC1` (stereo not given in full), for which the TGI in test [1], in test [2], in [3], in test [4], in [6] and in test [7] was greater than 100 µM in each case. In test [8], this compound registered a TGI greater than 100 µM.
Take `COc1ccc2c(CCCc3ccc(Cl)cc3Cl)c3[n+](cc2c1OC)CCc1cc2c(cc1-3)OCO2`: the GI50 in test [9] was 0.639 µM; in test [3], 0.485 µM; in [10], 0.322 µM; in test [6] it was 0.383 µM. Further, the TGI was 1.96 µM in [9], 1.88 µM in test [3], 1.31 µM in [10] and 1.58 µM in [6].
`CCC[CH2][Sn]([CH2]CCC)([O]C(=O)c1cc(F)ccc1F)[O]C(=O)c1cc(F)ccc1F`: the GI50 in test [1] is 7.72 µM; in [2], 1.63 µM; in test [3], 1.47 µM; in [4], 0.108 µM; in test [5], 1.56 µM; in [6], 0.619 µM. In addition, the GI50 in [7] was 0.888 µM; in [8] it was 1.24 µM. The TGI came to 21 µM in test [1]; 3.18 µM in test [2]; 2.81 µM in test [3]; 0.23 µM in test [4]; 2.9 µM in [5]; 1.91 µM in [6]. Further, the TGI in test [7] was 2.11 µM; in [8], 2.49 µM.
For `O=C(COC(=O)c1cccc2c(=O)c3ccccc3[nH]c12)Nc1ccc(Cl)cc1`, the TGI in test [1], in test [2], in [3], in [4], in test [5] and in test [6] was greater than 100 µM each time. The TGI in [7] and in test [8] was greater than 100 µM each time.
Consider `O=NN1CCN=C1c1ccc([N+](=O)[O-])cc1`, for which the TGI in test [1], in [2], in [3], in test [4], in test [5] and in [6] was greater than 100 µM throughout. Moreover, the TGI in [7] and in [8] was greater than 100 µM each time.
Turning to `Cc1ccc(C2[C@H]3C(=O)N(c4ccc(Cc5ccc(N6C(=O)[C@@H]7ON(c8ccccc8)C(c8ccc(C)cc8)[C@@H]7C6=O)cc5)cc4)C(=O)[C@H]3ON2c2ccccc2)cc1` (stereo not given in full), the TGI in test [1], in [2], in test [3], in [6], in test [7] and in [8] was greater than 100 µM in each case.
Regarding `CN(CCCN1C(=O)c2cccc3cc([N+](=O)[O-])cc(c23)C1=O)CCN(C)CCCN1C(=O)c2cccc3cc([N+](=O)[O-])cc(c23)C1=O`, the TGI in [1], in test [2], in [3], in test [4], in [5] and in test [6] was greater than 39.3 µM in each case. For the same compound, the TGI in [7] and in test [8] was greater than 39.3 µM throughout.
`CN(C)C(=S)/N=c1\ssc(=S)n1Cc1ccco1`: the TGI was greater than 100 µM in test [1]; greater than 100 µM in test [2]; greater than 100 µM in test [3]; 1.95 µM in test [10]; 2.07 µM in test [4]; greater than 78.4 µM in test [5]. The results for the TGI in test [6], in [7] and in test [8] were greater than 100 µM, greater than 47.4 µM and greater than 100 µM, respectively.
In the case of `O=C1NC2C3CC(OCc4ccccc4)(OCc4ccccc4)C2OC3O1` (stereo not given), the TGI in test [1], in [2], in test [3], in [6] and in test [8] was greater than 50 µM each time.
For the compound `Cc1ccc(C)c(NC(=O)C(=O)C2C(=O)N(c3ccccc3)N=C2N)c1` (stereo not given), the TGI in [1], in [2], in test [3], in [4], in test [5] and in [6] was greater than 100 µM in each case. Besides, the TGI in [7] and in test [8] was greater than 100 µM each time.
